Where two headings read alike, the source gives them in different places. Where a SMILES comes first, the peptide text is derived from it. [ ]: non-standard residue; d: D form. The star is where a group is joined. 5TAMRA = CN(C)c1ccc2c(c1)Oc1cc(N(C)C)ccc1C21OC(=O)c2cc(C(=O)*)ccc21

This note sets out measurements from US20190119348A1, “PARATHYROID HORMONE RECEPTOR 1 ANTAGONIST AND INVERSE AGONIST POLYPEPTIDES AND METHODS OF THEIR USE” (The General Hospital Corporation, priority 2016, published 2019).

The target of one experiment is T1, endogenous hPTHR1 (Homo sapiens, UniProt Q03431).
T1 construct: Saos-2, in which is endogenously expressed the hPTHR1; endogenous in cells
T1 sequence (Q03431 27-593): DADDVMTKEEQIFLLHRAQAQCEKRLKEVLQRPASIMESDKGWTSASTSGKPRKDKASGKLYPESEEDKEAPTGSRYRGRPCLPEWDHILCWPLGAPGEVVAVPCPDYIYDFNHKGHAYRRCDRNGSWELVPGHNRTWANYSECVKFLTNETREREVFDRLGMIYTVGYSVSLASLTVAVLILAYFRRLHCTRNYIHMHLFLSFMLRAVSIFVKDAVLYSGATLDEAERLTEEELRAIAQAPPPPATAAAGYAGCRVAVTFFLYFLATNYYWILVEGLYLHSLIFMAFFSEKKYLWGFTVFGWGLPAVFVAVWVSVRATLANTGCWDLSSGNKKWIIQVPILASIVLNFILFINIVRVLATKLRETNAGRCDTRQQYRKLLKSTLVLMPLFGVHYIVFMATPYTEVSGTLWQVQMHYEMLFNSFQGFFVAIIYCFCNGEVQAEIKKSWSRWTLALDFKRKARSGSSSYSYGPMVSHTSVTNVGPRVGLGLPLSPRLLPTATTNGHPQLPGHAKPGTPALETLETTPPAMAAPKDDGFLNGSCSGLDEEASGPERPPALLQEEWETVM
The experiment can be described thus: Antagonism of PTH(1-34)- and PTHrP(1-36)-induced cAMP response (GloSensor) in SGS-72 cells. The class given is cell-based. On the procedure:
cAMP signaling was assessed in the HEK293-derived or SaOS2-derived cell lines stably expressing the luciferase-based GloSensorTM cAMP reporter ([…] al., Paper presented at: Novel Signaling Mechanisms and Bone Cell Biology 2014; Binkowski et al., Methods in molecular biology. 756:263-271). HEK-293 cells were further transfected to stably express the hPTHR1, hPTHR1-H223R, or hPTHR1-T410P. The cells were seeded into 96-well white plates and were assayed 24 to 48 hours post-confluency. Assays were performed at room temperature in CO2-independent culture media (Life Technologies, Corp., Carlsbad, Calif.) containing 0.1% BSA (CIDB). The cells were pre-loaded with luciferin (0.5 mM in CIDB) for 15 minutes, then PTH peptides were added at varying concentrations. cAMP-dependent luminescence was measured at two-minute intervals using a PerkinElmer Envision plate reader. The time at which maximum luminescence (cps) observed with agonist alone, typically at 10-20 minutes after agonist addition, was used to obtain data from wells containing antagonist with or without agonist, to thus generate antagonist ligand dose-response curves. The resulting cps values were then plotted against ligand concentration using GraphPad Prism 7.0 software and a four-parameter logistics curve fitting equation, which yielded parameters of inhibitory potency (pIC50). Pharmacological properties of the ligands were assessed in cells expressing the PTHR1 and the GloSensorTM cAMP reporter. The assays used GP-2.3 cells, derived from HEK293 cells by stable transfection with the hPTHR1 and GloSensorTM, as well as SGS-72 cells, which are derived from the human osteosarcoma cell line, Saos-2, in which is endogenously expressed the hPTHR1, by stable transfection with GloSensorTM. Binding of representative polypeptides to the PTHR1 was assessed in GP-2.3 cells by radioligand competition methods (FIGS. 1A and 1B, Table 3). […] In Table 5, antagonist assays were performed in SGS-72 cells (SaOS2 cells with stable GloSensorTM cAMP reporter) at room temperature. […] The mean (±sem) concentration of antagonist that inhibited the maximum agonist-induced response observed in the absence of antagonist (at 40 minutes) is reported in units of -log M (pIC50), and the corresponding nanomolar value is shown below each pIC50 value. Data are means of the number of seven experiments. The PTH(1-34)-induced maximum luminescence was 500,000 cps and the basal was 5,000 cps. TMR indicates Lys13 modified at epsilon amino function with TMR. The data are illustrated in FIG. 7A. […] Date are means (±SEM) of the number of separate experiments indicated by n.

Experiment [1] has as its target T2, PTHR1 (Homo sapiens, UniProt Q03431).
T2 construct: expressed in transfected cells; host or cells: GP-2.3 (HEK-293 stably transfected with hPTHR1 and GloSensor)
T2 sequence (Q03431 27-593): T1 sequence (Q03431 27-593)
The experiment in a line: Residual agonist activity, cAMP luminescence in GP-2.3 cells. The class given is cell-based. The note with it: ligands applied directly to GP-2.3 cells. As to the method:
(§1) cAMP signaling was assessed in the HEK293-derived or SaOS2-derived cell lines stably expressing the luciferase-based GloSensor™ cAMP reporter (Hattersley et al., Paper presented at: Novel Signaling Mechanisms and Bone Cell Biology 2014; Binkowski et al., Methods in molecular biology. 756:263-271). HEK-293 cells were further transfected to stably express the hPTHR1, hPTHR1-H223R, or hPTHR1-T410P. The cells were seeded into 96-well white plates and were assayed 24 to 48 hours post-confluency. Assays were performed at room temperature in CO2-independent culture media (Life Technologies, Corp., Carlsbad, Calif.) containing 0.1% BSA (CIDB). The cells were pre-loaded with luciferin (0.5 mM in CIDB) for 15 minutes, then PTH peptides were added at varying concentrations. cAMP-dependent luminescence was measured at two-minute intervals using a PerkinElmer Envision plate reader. The time at which maximum luminescence (cps) observed with agonist alone, typically at 10-20 minutes after agonist addition, was used to obtain data from wells containing antagonist with or without agonist, to thus generate antagonist ligand dose-response curves. The resulting cps values were then plotted against ligand concentration using GraphPad Prism 7.0 software and a four-parameter logistics curve fitting equation, which yielded parameters of inhibitory potency (pIC50).

Another experiment has as its target T3, PTHR1 (hPTHR1) (Homo sapiens, UniProt Q03431).
T3 construct: expressed in transfected cells; host or cells: GP-2.3 (HEK-293 stably transfected with hPTHR1 and GloSensor)
T3 sequence (Q03431 27-593): T1 sequence (Q03431 27-593)
The experiment can be described thus: Radioligand competition binding in GP-2.3 cells. The note with it: radioligand competition. On the procedure: (§2) Intact cell binding reactions were performed in 96-well plates, and, following incubation, the cells were lysed with 1N NaOH, and the lysate was counted for gamma radiation. For membrane dissociation assays, reactions were assembled in 15 cc tubes, and, at times following membrane addition (t=0), aliquots were withdrawn and filtered through a well of a vacuum filtration 96-well plate, rinsed, and, after washing, the filters were removed and counted for gamma irradiation. […] Curves were fit to the data using a four-parameter sigmoidal dose-response equation.
(§3) Pharmacological properties of the ligands were assessed in cells expressing the PTHR1 and the GloSensor™ cAMP reporter. The assays used GP-2.3 cells, derived from HEK293 cells by stable transfection with the hPTHR1 and GloSensor™, as well as SGS-72 cells, which are derived from the human osteosarcoma cell line, Saos-2, in which is endogenously expressed the hPTHR1, by stable transfection with GloSensor™. Binding of representative polypeptides to the PTHR1 was assessed in GP-2.3 cells by radioligand competition methods (FIGS. 1A and 1B, Table 3).
The assays were performed in GP-2.3 cells with the two tracer ^125I-radioligands shown; values are half-maximal inhibitory concentration (pIC50) and corresponding nanomolar value (below) derived from curve fitting ligand dose-response data. Data are means of four experiments.

The target in experiment [2] is T2, PTHR1. The experiment can be described thus: Antagonism of PTH(1-34)-induced cAMP response (GloSensor) in GP-2.3 cells. The format is cell-based. Particulars: PTH(1-34) 1 nM. On the procedure: as §1, §3
z,999 concentration of antagonist that inhibited the maximum response to PTH(1-34)-induced in the absence of antagonist (at ˜40 minutes) is reported in units of -log M (pIC50), and the corresponding nanomolar value is shown below each pIC50 value. Data are means of the number of experiments indicated (n). The PTH(1-34)-induced maximum luminescence was ˜80,000 cps and the basal was ˜1,000 cps. TMR indicates Lys13 modified at epsilon amino function with TMR, P vs. inhibition by dW12,Y34-bPTH(7-34).

In experiment [3] the target is T2, PTHR1. The experiment can be described thus: Confocal microscopy of TMR-ligand internalization in GP-2.3 cells. The format is cell-based. The note with it: 15 minutes after ligand addition (100 nM). On the procedure: Confocal fluorescence microscopy images were acquired using Olympus FV-1000 MPE confocal system (Center Valley, Pa. 18034), performed by the Photopathology Core facility of the Wellman Center for Photomedicine at the Massachusetts General Hospital. Images were captured with a 40× (LUMPLFL 0.8NA WD 3.3 mm) water-immersion objective, and with 405 nm and 559 nm excitation lasers, at a resolution of 1024×1024.
The cells were cultured on glass cover-slips in 24-well plates to ˜75% of confluency, then treated with PTH^TMR ligand (100 nM) in Hank's balanced salts buffer with 0.1% BSA (HBB) for 15 minutes at room temperature, then rinsed thrice with HBB, fixed with 4% formalin for 5 minutes, mounted with vector-shield containing DAPI on a glass microscope slide, viewed on the microscope, and digitally imaged.

Experiment [4] deals with T2, PTHR1. The experiment can be described thus: PTHR1 binding kinetics (dissociation) in GP-2.3 cell membranes. On the procedure:
as §2, with “Ligand binding to the PTH1 R was assessed in intact GP-2.3 cells or membranes prepared from GP-2.3 cells using a ^125I-PTH peptide analog as tracer radioligand and were incubated at room temperature for 90 minutes. Intact” for “Intact”

For `CC[C@H](C)[C@H](N)C(=O)N[C@@H](CCC(N)=O)C(=O)N[C@@H](CC(C)C)C(=O)N[C@@H](CCSC)C(=O)N[C@@H](Cc1c[nH]cn1)C(=O)N[C@@H](CCC(N)=O)C(=O)N[C@@H](CCCNC(=N)N)C(=O)N[C@@H](C)C(=O)N[C@@H](CCCCN)C(=O)N[C@@H](Cc1c[nH]c2ccccc12)C(=O)N[C@H](C(=O)N[C@@H](CCC(N)=O)C(=O)N[C@@H](CC(=O)O)C(=O)N[C@@H](C)C(=O)N[C@@H](CCCNC(=N)N)C(=O)N[C@@H](CCCNC(=N)N)C(=O)N[C@@H](CCCNC(=N)N)C(=O)N[C@@H](C)C(=O)N[C@@H](Cc1ccccc1)C(=O)N[C@@H](CC(C)C)C(=O)N[C@@H](Cc1c[nH]cn1)C(=O)N[C@@H](CCCCN)C(=O)N[C@@H](CC(C)C)C(=O)N[C@H](C(=O)N[C@@H](C)C(=O)N[C@@H](CCC(=O)O)C(=O)N[C@H](C(=O)N[C@@H](Cc1c[nH]cn1)C(=O)N[C@H](C(=O)N[C@@H](C)C(=O)N[C@@H](CCC(=O)O)C(=O)N[C@H](C(N)=O)[C@@H](C)CC)[C@@H](C)O)[C@@H](C)CC)[C@@H](C)CC)[C@@H](C)CC` [compound 1950, LA-PTH(5-36)] (H-IQLMHQRAKWIQDARRRAFLHKLIAEIHTAEI-NH2; N-terminus assumed), the “fold more effective inhibition than dTrp^12-PTH(7-34)-1894” value was roughly 30 fold on endogenous hPTHR1 (PTH(1-34) 0.3 nM) and “five” at PTHR1 [2]. The IC50 on endogenous hPTHR1 (antagonist pre-treatment 10 minutes, PTHrP(1-36) 0.3 nM, seven experiments, read-out: corresponding nanomolar value vs. PTHrP(1-36) (Table 5)) was 1 nM; on endogenous hPTHR1 (antagonist pre-treatment 10 minutes, PTHrP(1-36) 0.3 nM, seven experiments, read-out: pIC50 vs. PTHrP(1-36) (Table 5) (converted)), 0.871 nM; on endogenous hPTHR1 (corresponding nanomolar value vs. PTH(1-34) (Table 5), antagonist pre-treatment 10 minutes, PTH(1-34) 0.3 nM, seven experiments) it was 1 nM; on endogenous hPTHR1 (pIC50, inhibition of cAMP signal induced by PTH(1-34), PTH(1-34) 0.3 nM) it was 2.51 nM; at endogenous hPTHR1 (pIC50 vs. PTH(1-34) (Table 5), antagonist pre-treatment 10 minutes, PTH(1-34) 0.3 nM, seven experiments), 0.832 nM; at PTHR1 [2] (pIC50, inhibition of cAMP signal induced by PTH(1-34)) it was 100 nM. Moreover, the “residual agonist activity compared with dTrp^12-PTH(7-34)-1894” value on PTHR1 [1] was “less residual agonist activity”. Moreover, the “apparent PTHR1 affinity compared with dTrp^12-PTH(7-34)-1894” value on PTHR1 (hPTHR1) is listed as “at least as strong”.

With `CC[C@H](C)[C@H](N)C(=O)N[C@@H](CCC(N)=O)C(=O)N[C@@H](CC(C)C)C(=O)N[C@@H](CCSC)C(=O)N[C@@H](Cc1c[nH]cn1)C(=O)N[C@@H](CCC(N)=O)C(=O)N[C@@H](CCCNC(=N)N)C(=O)N[C@H](Cc1c[nH]c2ccccc12)C(=O)N[C@@H](CCCCNC(=O)c1ccc2c(c1)C(=O)OC21c2ccc(N(C)C)cc2Oc2cc(N(C)C)ccc21)C(=O)N[C@@H](Cc1c[nH]c2ccccc12)C(=O)N[C@H](C(=O)N[C@@H](CCC(N)=O)C(=O)N[C@@H](CC(=O)O)C(=O)N[C@@H](C)C(=O)N[C@@H](CCCNC(=N)N)C(=O)N[C@@H](CCCNC(=N)N)C(=O)N[C@@H](CCCNC(=N)N)C(=O)N[C@@H](C)C(=O)N[C@@H](Cc1c[nH]c2ccccc12)C(=O)N[C@@H](CC(C)C)C(=O)N[C@@H](Cc1c[nH]cn1)C(=O)N[C@@H](CCCCN)C(=O)N[C@@H](CC(C)C)C(=O)N[C@H](C(=O)N[C@@H](C)C(=O)N[C@@H](CCC(=O)O)C(=O)N[C@H](C(=O)N[C@@H](Cc1c[nH]cn1)C(=O)N[C@H](C(=O)N[C@@H](C)C(=O)N[C@@H](CCC(=O)O)C(=O)N[C@H](C(N)=O)[C@@H](C)CC)[C@@H](C)O)[C@@H](C)CC)[C@@H](C)CC)[C@@H](C)CC` [compound 1953, TMR-dW12, W23-LA-PTH(5-36)] (H-IQLMHQR[dW]K(5TAMRA)WIQDARRRAWLHKLIAEIHTAEI-NH2; N-terminus assumed), the “ligand internalization (TMR fluorescence)” value at PTHR1 [3] was “did not internalize”.

In the case of “^125I-Nle^8, dTrp^12, Trp^23, Tyr^36-LA-PTH(5-36)-1954”, the “dissociation from the PTHR1 compared with ^125I-Tyr^36-PTHrP(5-36)-836 and ^125I-M-PTH(1-15)-779” value at PTHR1 [4] is “dissociated more slowly”.
